Measurements taken from patent publication EP0255485A2, “Transdermal compositions” (priority 1986, dated 1988).
Where a name gives a salt, the structure may show the parent alone. Read-outs that look alike come from different tables or passages of the source.

Assays:
in vitro = details: mouse
[1] = for P Px*: Px = permeability coefficient of the drug from propylene glycol solution; for Flux^+: expressed in terms of procaterol hydrochloride, concentration could not be measured
[2] = Extrapolated delivery through human skin, assuming 1/5 the permeability of mouse skin; format: in vitro ADME
Protocol: The permeation of the compounds from the mixture of propylene glycol triacetin was negligible. The concentration of each analgesic can be increased to 3% or 4% in the donor solution and corresponding increases in flux can be expected. […] A usual dose for oxymorphone and hydromorphone is about 6 to 10 mg per day in humans.
Assuming the permeability of human skin to be 1/5 that of mouse skin, a daily flux of 0.68 mg can be achieved in man. The maximum daily dose in man is approximated to be 0.2 mg.

[3] = Vehicle LA:TA:PG 20:50:30, Conc'n. 21.57 mg/ml
[4] = LA:PG:TA 5:30:65, 0.5 wt % analgesic, Conc. 5.5 mg/ml
[5] = LA:PG:TA 10:30:60, 0.5 wt % analgesic, Conc. 5.4 mg/ml
[6] = LA:PG:TA 20:30:50, 0.5 wt % analgesic, Conc. 5.3 mg/ml

CC1CC(=O)NN=C1c1ccc(-n2ccnc2)cc1 (stereo not drawn) [Compound I Base]
Papp (in vitro; Permeability Coefficient (P), 0 % Linoleic Acid in propylene glycol, Conc'n. 26.38 mg/ml): 0.0042 ×10⁻⁶ cm/s
Papp (in vitro; Permeability Coefficient (P), 10 % Linoleic Acid in propylene glycol, Conc'n. 43 mg/ml): 3.18 ×10⁻⁶ cm/s
Papp (in vitro; Permeability Coefficient (P), 40 % Linoleic Acid in propylene glycol, Conc'n. 43 mg/ml): 2.18 ×10⁻⁶ cm/s
Papp (in vitro; Permeability Coefficient (P), 80 % Linoleic Acid in propylene glycol, Conc'n. 43 mg/ml): 0.96 ×10⁻⁶ cm/s
Papp (in vitro; Permeability Coefficient (P), 100 % Linoleic Acid, Conc'n. 31.5 mg/ml): 0.22 ×10⁻⁶ cm/s
Papp (in vitro; Permeability Coefficient (P), Vehicle LA:TA:PG 20:50:30, Conc'n. 21.57 mg/ml): 1.68 ×10⁻⁶ cm/s
Papp (in vitro; Permeability Coefficient (P), Vehicle LA:TG 20:80, Conc'n. 20.09 mg/ml): 2.58 ×10⁻⁶ cm/s
Papp (in vitro; permeability coefficient): 7.6 ×10⁻⁶ cm/s
Lag Time ([1]; 0 % Linoleic Acid in propylene glycol, Conc'n. 26.38 mg/ml): 6.2 h
Flux ([1]; 0 % Linoleic Acid in propylene glycol, Conc'n. 26.38 mg/ml, expressed as hydrochloride salt): 0.4 ug/cm^2/h
P Px* ([1]; 0 % Linoleic Acid in propylene glycol): 1
Lag Time ([1]; 10 % Linoleic Acid in propylene glycol, Conc'n. 43 mg/ml): 1.75 h
Flux ([1]; 10 % Linoleic Acid in propylene glycol, Conc'n. 43 mg/ml, expressed as hydrochloride salt): 492 ug/cm^2/h
P Px* ([1]; 10 % Linoleic Acid in propylene glycol): 755
Lag Time ([1]; 40 % Linoleic Acid in propylene glycol, Conc'n. 43 mg/ml): 1.45 h
Flux ([1]; 40 % Linoleic Acid in propylene glycol, Conc'n. 43 mg/ml, expressed as hydrochloride salt): 337.3 ug/cm^2/h
P Px* ([1]; 40 % Linoleic Acid in propylene glycol): 517
Lag Time ([1]; 80 % Linoleic Acid in propylene glycol, Conc'n. 43 mg/ml): 1.29 h
Flux ([1]; 80 % Linoleic Acid in propylene glycol, Conc'n. 43 mg/ml, expressed as hydrochloride salt): 148.5 ug/cm^2/h
P Px* ([1]; 80 % Linoleic Acid in propylene glycol): 227
Lag Time ([1]; 100 % Linoleic Acid, Conc'n. 31.5 mg/ml): 5.35 h
Flux ([1]; 100 % Linoleic Acid, Conc'n. 31.5 mg/ml, expressed as hydrochloride salt): 24.5 ug/cm^2/h
P Px* ([1]; 100 % Linoleic Acid): 51
Flux [1, 3]: 130.14 ug/cm^2/h
Lag Time [1, 3]: 1.91 h
P Px* ([1]; Vehicle LA:TA:PG 20:50:30): 400
Flux ([1]; Vehicle LA:TG 20:80 (TG = tetraglycol), Conc'n. 20.09 mg/ml): 186.69 ug/cm^2/h
Lag Time ([1]; Vehicle LA:TG 20:80, Conc'n. 20.09 mg/ml): 5.58 h
P Px* ([1]; Vehicle LA:TG 20:80): 614

CN1CC[C@]23c4c5ccc(O)c4O[C@H]2C(=O)CC[C@@]3(O)[C@H]1C5 [OX, Oxymorphone]
delivered from a 10 cm² patch in humans ([2]; loading concentration increased to 2%, four-fold increase in flux expected): about 12.8 mg/day
delivery from a 10 cm² patch through human skin ([2]; loading concentration of 0.5%, assuming 1/5 the permeability): about 3.2 mg/day
Papp (in vitro; PX10^6, LA:PG:TA 5:30:65, 0.5 wt % analgesic, Conc. 5.5 mg/ml): 2 ×10⁻⁶ cm/s
Papp (in vitro; PX10^6, LA:PG:TA 10:30:60, 0.5 wt % analgesic, Conc. 5.4 mg/ml): 2.7 ×10⁻⁶ cm/s
Papp (in vitro; PX10^6, LA:PG:TA 20:30:50, 0.5 wt % analgesic, Conc. 5.3 mg/ml): 3.5 ×10⁻⁶ cm/s
Flux [1, 4]: 40.0 ug/cm^2/hr
Lag Time [1, 4]: 7.6 h
Flux [1, 5]: 51.5 ug/cm^2/hr
Lag Time [1, 5]: 4.1 h
Flux [1, 6]: 66.6 ug/cm^2/hr
Lag Time [1, 6]: 3.5 h
delivery from a 10 cm² patch through hairless mouse skin ([1]; loading concentration of 0.5%, equivalent of flux 66.6 ug/cm²/hr): about 16 mg/day

CCC(NC(C)C)C(O)c1ccc(O)c2[nH]c(=O)ccc12 (stereo not drawn) [Procaterol Hydrochloride]
daily flux in man [2]: 0.68 mg
Papp (in vitro; P, Solvent System LA:PG:TA 20:30:50, approximate concentration 5 mg/ml): 0.77 ×10⁻⁶ cm/s
Lag Time ([1]; Solvent System LA:PG:TA 20:30:50, approximate concentration 5 mg/ml): 4.0 h
Flux ([1]; Solvent System LA:PG:TA 20:30:50, approximate concentration 5 mg/ml, Hydrochloride): 14 ug/cm^2/h
Flux ([1]; Solvent System LA:PG:TA 20:30:50, approximate concentration 5 mg/ml, listed as procaterol hydrochloride, Hydrochloride): about 14 ug/cm^2/h
flux value ([1]; formulation containing LA:PG:TA (20:30:50)): 3.36 mg/day/10 cm²

CCC(NC(C)C)C(O)c1ccc(O)c2[nH]c(=O)ccc12 (stereo not drawn) [Procaterol]
Papp (in vitro; P, Vehicle Ethyl Linoleate:PG:TA 10:5:85, Drug Conc. 0.855 mg/ml): 3.12 ×10⁻⁶ cm/s
Papp (in vitro; P, Vehicle Ethyl Linoleate:TG 10:90, Drug Conc. 12.29 mg/ml): 0.82 ×10⁻⁶ cm/s
Papp (in vitro; P, Vehicle LA:TA:PG 20:50:30, Procaterol Conc. 40 mg/ml): 1.1 ×10⁻⁶ cm/s
Papp (in vitro; P, Vehicle LA:TEC:PG 10:70:20, Drug Conc. 23.03 mg/ml): 0.404 ×10⁻⁶ cm/s
Papp (in vitro; P, Vehicle LA:TEC:PG 10:80:10, Drug Conc. 16.9 mg/ml): 0.526 ×10⁻⁶ cm/s
Papp (in vitro; P, Vehicle LA:TEC:PG 20:50:30, Drug Conc. 4.32 mg/ml): 0.547 ×10⁻⁶ cm/s
Papp (in vitro; P, Vehicle LA:TEC:PG 20:50:30, Drug Conc. 44.7 mg/ml): 0.41 ×10⁻⁶ cm/s
Papp (in vitro; P, Vehicle LA:TEC:PG 20:60:20, Drug Conc. 19.35 mg/ml): 0.66 ×10⁻⁶ cm/s
Papp (in vitro; P, Vehicle LNA:PG:TA 20:15:65, Drug Conc. 8.15 mg/ml): 2.6 ×10⁻⁶ cm/s
Papp (in vitro; P, Vehicle Oleic Acid:PG:TA 20:30:50, Drug Conc. 15.89 mg/ml): 3 ×10⁻⁶ cm/s
Lag Time ([1]; Ratio of LA:TA:PG 5:85:10): 5.5 h
Flux^+ ([1]; Ratio of LA:TA:PG 5:85:10): 23.1 ug/cm^2/h
Lag Time ([1]; Ratio of LA:TA:PG 10:80:10): 4.8 h
Flux^+ ([1]; Ratio of LA:TA:PG 10:80:10): 44.2 ug/cm^2/h
Lag Time ([1]; Ratio of LA:TA:PG 15:75:10): 4.05 h
Flux^+ ([1]; Ratio of LA:TA:PG 15:75:10): 53.2 ug/cm^2/h
Lag Time ([1]; Ratio of LA:TA:PG 20:50:30): 4.4 h
Flux^+ ([1]; Ratio of LA:TA:PG 20:50:30): 56.3 ug/cm^2/h
Lag Time ([1]; Ratio of LA:TA:PG 20:75:5): 4.8 h
Flux^+ ([1]; Ratio of LA:TA:PG 20:75:5): 33.9 ug/cm^2/h
Lag Time ([1]; Vehicle Ethyl Linoleate:PG:TA 10:5:85, Drug Conc. 0.855 mg/ml): 6 h
Flux ([1]; Vehicle Ethyl Linoleate:PG:TA 10:5:85, Drug Conc. 0.855 mg/ml, expressed as procaterol hydrochloride): 9.60 ug/cm^2/h
Lag Time ([1]; Vehicle Ethyl Linoleate:TG 10:90, Drug Conc. 12.29 mg/ml): 8 h
Flux ([1]; Vehicle Ethyl Linoleate:TG 10:90, Drug Conc. 12.29 mg/ml, expressed as procaterol hydrochloride): 36.27 ug/cm^2/h
Lag Time ([1]; Vehicle LA:TA:PG 20:50:30, Procaterol Conc. 40 mg/ml): 1.26 h
Flux ([1]; Vehicle LA:TA:PG 20:50:30, Procaterol Conc. 40 mg/ml, expressed as hydrochloride salt): 158.6 ug/cm^2/h
Lag Time ([1]; Vehicle LA:TEC:PG 10:70:20, Drug Conc. 23.03 mg/ml): 14.7 h
Flux* ([1]; Vehicle LA:TEC:PG 10:70:20, Drug Conc. 23.03 mg/ml, expressed as hydrochloride salt): 33.5 ug/cm^2/h
Lag Time ([1]; Vehicle LA:TEC:PG 10:80:10, Drug Conc. 16.9 mg/ml): 14.7 h
Flux* ([1]; Vehicle LA:TEC:PG 10:80:10, Drug Conc. 16.9 mg/ml, expressed as hydrochloride salt): 32.0 ug/cm^2/h
Lag Time ([1]; Vehicle LA:TEC:PG 20:50:30, Drug Conc. 4.32 mg/ml): 11.2 h
Flux* ([1]; Vehicle LA:TEC:PG 20:50:30, Drug Conc. 4.32 mg/ml, expressed as hydrochloride salt): 8.5 ug/cm^2/h
Lag Time ([1]; Vehicle LA:TEC:PG 20:50:30, Drug Conc. 44.7 mg/ml): 7.3 h
Flux* ([1]; Vehicle LA:TEC:PG 20:50:30, Drug Conc. 44.7 mg/ml, expressed as hydrochloride salt): 65.8 ug/cm^2/h
Lag Time ([1]; Vehicle LA:TEC:PG 20:60:20, Drug Conc. 19.35 mg/ml): 4.9 h
Flux* ([1]; Vehicle LA:TEC:PG 20:60:20, Drug Conc. 19.35 mg/ml, expressed as hydrochloride salt): 46.0 ug/cm^2/h
Flux ([1]; Vehicle LNA:PG:TA 20:15:65 (LNA = Linolenic Acid), Drug Conc. 8.15 mg/ml, expressed as procaterol hydrochloride): 76.27 ug/cm^2/h
Lag Time ([1]; Vehicle LNA:PG:TA 20:15:65, Drug Conc. 8.15 mg/ml): 2 h
Lag Time ([1]; Vehicle Oleic Acid:PG:TA 20:30:50, Drug Conc. 15.89 mg/ml): 1.8 h
Flux ([1]; Vehicle Oleic Acid:PG:TA 20:30:50, Drug Conc. 15.89 mg/ml, expressed as procaterol hydrochloride): 171.76 ug/cm^2/h
